The text below walks through data of US20020133846A1, “Method for protecting plants” (priority 1996, published 2002).

Like-named read-outs stand apart in the source and are kept apart here.

In one test the test system is Phytophthora infestans. The format is in vivo.
Test [1] concerns Pseudoperonospora cubensis. Description: Action against Pseudoperonospora cubensis in cucumbers. In kind it is in vivo.
In test [2] the test system is Peronospora parasitica NoCo2. As to the kind of experiment: whole plant or invertebrate. The settings on record: Hyaloperonospora parasitica, in Arabidopsis thaliana, read-out: Fungal Growth Inhibition % O (observed), Table 33, wt Col-0, metalaxyl 12.5 mg/l. In kind it is in vivo.
Test [3] has as its system Peronospora parasitica Emwa. Description: Action against Peronospora parasitica Emwa in Arabidopsis thaliana (Ws), rRNA fungal probe. The settings on record: Hyaloperonospora parasitica, in Arabidopsis thaliana, Table 30, Ws, read-out: Fungal Growth Inhibition % O (observed). The format is in vivo.
In test [4] the test system is Peronospora parasitica isolate Emwa. Description: Action against Peronospora parasitica in Arabidopsis overexpressing NIM1 (lines 6E, 7C) and wild-type Ws. The format is in vivo. The settings on record: Hyaloperonospora parasitica, in Arabidopsis thaliana, Table 36, wt Ws, read-out: Fungal Growth Inhibition % O (observed). The text has this: The plant lines used in this example (6E and 7C) were generated from transformation of wild-type Arabidopsis thaliana plants (ecotype Ws) with the BamHI-HindIII NIM1 genomic fragment (SEQ ID NO:1—bases 1249-5655), as described above in Example 21. The fungicides metalaxyl, fosetyl, and copper hydroxide, formulated as 25%, 80%, and 70% active ingredient (ai), respectively, with a wettable powder carrier, were applied as fine mist to leaves of three week-old transgenic Ws plants constitutively expressing the NIM1 gene. The wettable powder alone was applied as a control. Three days later, plants were inoculated with a Peronospora parasitica isolate Emwa conidial suspension (1-2×10^5 spores/ml), as described in Delaney et al. (1995). Following inoculation, plants were covered to maintain high humidity and were placed in a Percival growth chamber at 17° C. with a 14-hr day/10-hr night cycle (Uknes et al., 1993). Tissue was harvested 8 days after inoculation.
Fungal infection progression was followed for 12 days by viewing under a dissecting microscope to score development of conidiophores (Delaney, et al. (1994); Dietrich, et al. (1994)). Lactophenoltrypan blue staining of individual leaves was carried out to observe fungal growth within leaf tissue. Fungal growth was quantified using a rRNA fungal probe obtained by PCR according to White et al. (1990; PCR Protocols: A guide to Methods and Application, 315-322) using primers NS1 and NS2 and P. parasitica EmWa DNA as templates. RNA was purified from frozen tissue by phenol/chloroform extraction following lithium chloride precipitation (Lagrimini et al, 1987: PNAS, 84: 7542-7546). Samples (7.5 μg) were separated by electrophoresis through formaldehyde agarose gels and blotted to nylon membranes (Hybond-N+, Amersham) as described by Ausbel et al. (1987). Hybridizations and washing were according to Church and Gilbert (1984, PNAS, 81: 1991-1995). Relative amounts of the transcript were determined using a Phosphor Imager (Molecular Dynamics, Sunnyvale, Calif.) following manufacturers instructions. Sample loading was normalized by probing stripped filter blots with the constitutively expressed b-tubulin Arabidopsis cDNA.

Test [5] concerns Peronospora parasitica NoCo2. Description: Action against Peronospora parasitica NoCo2 in Arabidopsis thaliana (Col-0), rRNA fungal probe. In kind it is in vivo. The settings on record: Table 29, Col-0, metalaxyl alone 0.1 mg/l.
Another test relates to Alternaria solani. As to the kind of experiment: Action against Alternaria solani in tomatoes in the open.
The test system of another test is Erysiphe graminis. As to the kind of experiment: Action against Erysiphe graminis in wheat, field trials.
The next test concerns Puccinia recondita. Description: Action against Puccinia recondita in wheat. The settings on record: Table 19, comp. II alone 5 mg a.i. per liter.
The subject of the next test is Mycosphaerella fijiensis. Description: Action against Mycosphaerella fijiensis in bananas. The following applies: Table 23, comp. II alone 50 g a.i. per ha.
Test [6] can be described thus: Action on crop yield of chili, field. In kind it is in vivo. The settings on record: in vivo.
For a further test, the system named is Cercospora sp. As to the kind of experiment: Action against Cercospora sp. (leaf spot) on chili, field. The format is in vivo. The following applies: Table 17, leaves after sixth spraying, comp. II alone 100 ppm.
The next test has as its system Colletotrichum sp. As to the kind of experiment: Action against Colletotrichum sp. (anthracnose) on chili, field. The format is in vivo. The following applies: Table 16, chili fruits after fifth spraying, comp. II alone 100 ppm. The text has this:
Effects on crop yield: In a plot of land about 10 m^2 (test location: Cikampek, Java, Indonesia), chili plants were sprayed a total of 7 times at intervals of about 7 days with 500-700 liters of spray mixture per hectare. Three days after the first spraying, the plants were infected artificially with the fungus.

Description for Alternaria solani: Tomato plants on a 7 m^2 plot were sprayed at 7-day intervals with a spray mixture prepared wettable powder of the active ingredient; in total 9 times. Infection was naturally. For ion, the leaf infested with the fungus was measured.
Description for Erysiphe graminis: In field trials (10 m^2), winter wheat in the growth phase was sprayed with a spray mixture prepared with a wettable powder of the active ingredient. Infection was naturally. 10 days post-infection, the fungus infestation was assessed.
Description for Mycosphaerella fijiensis: 40 banana plants in a 300 m^2 plot were sprayed at 17-19 day intervals with a spray mixture prepared with the wettable powder of the active ingredient; in total 6 times. Infection was naturally. For evaluation, the leaf infested with the fungus was measured.
Description for Puccinia recondita: 7-day-old wheat plants were sprayed to drip point with a spray mixture prepared from a formulated active ingredient, or combination of active ingredients. After 4 days, the treated plants were infected with a conidia suspension of the fungus, and the treated plants were subsequently incubated for 2 days at a relative atmospheric humidity of 90-100% and 20 C. 10 days post-infection, the fungus infestation was assessed.

As for `COCC(=O)N(c1c(C)cccc1C)C(C)C(=O)OC` (racemic) [metalaxyl], the “% action O (observed)” value in the test on Phytophthora infestans (Table 25, comp. II alone 0.1 mg a.i. per liter) stood at 13%; in the test with Phytophthora infestans (Table 25, comp. II alone 1 mg a.i. per liter) it was 23%; with Phytophthora infestans (Table 25, comp. II alone 10 mg a.i. per liter) it was 35%; in the test on Phytophthora infestans (Table 25, comp. II alone 50 mg a.i. per liter) it was 68%; in the test with Phytophthora infestans (Table 26, comp. II alone 1 mg a.i. per liter), 13%; with Phytophthora infestans (Table 26, comp. II alone 10 mg a.i. per liter), 33%. The “% action O (observed)” value in the test on Phytophthora infestans (Table 26, comp. II alone 50 mg a.i. per liter) was found to be 63%; in the test with Phytophthora infestans (Table 26, comp. II alone 100 mg a.i. per liter) it was 83%; in test [1] (Table 27, comp. II alone 0.5 mg a.i. per liter) it was 31%; in [1] (Table 27, comp. II alone 5 mg a.i. per liter), 66%; in test [1] (Table 27, comp. II alone 50 mg a.i. per liter), 91%. The inhibition at 12.5 µg/mL is 52.7% in test [2] and 59% in [4] (metalaxyl 0.0125 g/l). In addition, the inhibition at 0.1 µg/mL in test [3] (metalaxyl alone 0.1 mg/l) stood at 50%; in [5] (Hyaloperonospora parasitica, in Arabidopsis thaliana, read-out: Fungal Growth Inhibition % O (observed)), 0%. For the same compound, the inhibition at 0.5 µg/mL in test [3] (metalaxyl alone 0.5 mg/l) amounted to 50%. Besides, the inhibition at 2.5 µg/mL in test [3] (metalaxyl alone 2.5 mg/l) came out at 75%. Besides, the inhibition at 1.2 µg/mL in test [4] (metalaxyl 0.0012 g/l) is 27%. The “Fungal Growth Inhibition % O (observed)” value in test [5] is reported as “no fungal growth inhibition”.

On to `Cc1cc(C2CC2)nc(Nc2ccccc2)n1` [cyprodinil, 4-cyclopropyl-6-methyl-N-phenyl-2-pyrimidinamine], for which the “% action O (observed)” value with Alternaria solani (Table 24, comp. II alone 12.5 g a.i. per ha) came out at 30%; with Alternaria solani (Table 24, comp. II alone 25 g a.i. per ha), 51%; in the test with Erysiphe graminis (Table 22, comp. II alone 50 g a.i. per ha), 2%; in the test on Erysiphe graminis (Table 22, comp. II alone 100 g a.i. per ha), 31%.

Take `CCCC1COC(Cn2cncn2)(c2ccc(Cl)cc2Cl)O1` (stereo not drawn) [propiconazole, 1-[2-(2,4-dichlorophenyl)-4-propyl-1,3-dioxolan-2-ylmethyl]-1H-1,2,4-triazole]: the “% action O (observed)” value with Puccinia recondita worked out at 10%; with Mycosphaerella fijiensis, 26%; in the test on Erysiphe graminis (Table 21, comp. II alone 50 g a.i. per ha) it was 2%; with Erysiphe graminis (Table 21, comp. II alone 100 g a.i. per ha) it was 31%.

Consider “manganese ethylenebis(dithiocarbamate)polymer-zinc complex [mancozeb]”, for which the “Crop yield in kg per hectare O (observed)” value in test [6] was 8 kg per hectare. Moreover, the “% action O (observed)” value is given as 8% with Cercospora sp. and 12% in the test with Colletotrichum sp..
